According to ChEMBL document CHEMBL3596092, “Design, synthesis and biological evaluation of 4-(alkyloxy)-6-methyl-2H-pyran-2-one derivatives as quorum sensing inhibitors” (Bioorg Med Chem Lett, 2015):
Active and inactive are the calls of the source. The rule behind the calls is not given here.

How the values were obtained:
[1] = biological target: T1, Transcriptional activator protein LasR (Pseudomonas aeruginosa (strain ATCC 15692 / PAO1 / 1C / PRS 101 / LMG12228)) (UniProt P25084); assay: Inhibition of LasR in Pseudomonas aeruginosa PA14 assessed as reduction in biofilm formation incubated at 37 degC for 24 hrs by crystal violet staining based static biofilm formation assay
T1 sequence (whole entry): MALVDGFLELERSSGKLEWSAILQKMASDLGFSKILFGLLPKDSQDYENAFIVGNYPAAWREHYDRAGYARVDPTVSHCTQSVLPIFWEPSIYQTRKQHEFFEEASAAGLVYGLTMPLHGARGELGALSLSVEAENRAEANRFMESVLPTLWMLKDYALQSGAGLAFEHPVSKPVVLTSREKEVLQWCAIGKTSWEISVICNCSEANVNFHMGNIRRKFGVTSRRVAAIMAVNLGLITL

[2] = biological target: T1, Transcriptional activator protein LasR (Pseudomonas aeruginosa (strain ATCC 15692 / PAO1 / 1C / PRS 101 / LMG12228)); assay: Inhibition of LasR in Pseudomonas aeruginosa PA14 assessed as reduction in rhlI gene expression at 10 uM by RT-qPCR method
[3] = biological target: T1, Transcriptional activator protein LasR (Pseudomonas aeruginosa (strain ATCC 15692 / PAO1 / 1C / PRS 101 / LMG12228)); assay: Inhibition of LasR in Pseudomonas aeruginosa PA14 assessed as reduction in phzE1 gene expression at 10 uM by RT-qPCR method
[4] = biological target: T1, Transcriptional activator protein LasR (Pseudomonas aeruginosa (strain ATCC 15692 / PAO1 / 1C / PRS 101 / LMG12228)); assay: Inhibition of LasR in Pseudomonas aeruginosa PA14 assessed as reduction in lasA gene expression at 10 uM by RT-qPCR method
[5] = biological target: T1, Transcriptional activator protein LasR (Pseudomonas aeruginosa (strain ATCC 15692 / PAO1 / 1C / PRS 101 / LMG12228)); assay: Inhibition of LasR in Pseudomonas aeruginosa PA14 assessed as reduction in pqsH gene expression at 10 uM by RT-qPCR method
[6] = biological target: T1, Transcriptional activator protein LasR (Pseudomonas aeruginosa (strain ATCC 15692 / PAO1 / 1C / PRS 101 / LMG12228)); assay: Inhibition of LasR in Pseudomonas aeruginosa PA14 assessed as reduction in pqsC gene expression at 10 uM by RT-qPCR method
Pseudomonas aeruginosa [7] = assay: Toxicity against Pseudomonas aeruginosa PA14 assessed as effect on bacterial growth at 1 to 10 uM incubated at 37 degC for 13 hrs
[8] = biological target: T1, Transcriptional activator protein LasR (Pseudomonas aeruginosa (strain ATCC 15692 / PAO1 / 1C / PRS 101 / LMG12228)); assay: Inhibition of LasR in Pseudomonas aeruginosa PA14 assessed as reduction in lasI gene expression at 10 uM by RT-qPCR method
[9] = biological target: T1, Transcriptional activator protein LasR (Pseudomonas aeruginosa (strain ATCC 15692 / PAO1 / 1C / PRS 101 / LMG12228)); assay: Inhibition of LasR in Pseudomonas aeruginosa PA14 assessed as reduction in mvfR gene expression at 10 uM by RT-qPCR method
[10] = biological target: T1, Transcriptional activator protein LasR (Pseudomonas aeruginosa (strain ATCC 15692 / PAO1 / 1C / PRS 101 / LMG12228)); assay: Inhibition of LasR in Pseudomonas aeruginosa PA14 assessed as reduction in phzC1 gene expression at 10 uM by RT-qPCR method
[11] = biological target: T1, Transcriptional activator protein LasR (Pseudomonas aeruginosa (strain ATCC 15692 / PAO1 / 1C / PRS 101 / LMG12228)); assay: Inhibition of LasR in Pseudomonas aeruginosa PA14 assessed as reduction in biofilm formation at 1 to 1000 uM incubated at 37 degC for 24 hrs by crystal violet staining based static biofilm formation assay
[12] = biological target: T1, Transcriptional activator protein LasR (Pseudomonas aeruginosa (strain ATCC 15692 / PAO1 / 1C / PRS 101 / LMG12228)); assay: Inhibition of LasR in Pseudomonas aeruginosa PA14 assessed as reduction in rhlA gene expression at 10 uM by RT-qPCR method
[13] = biological target: T1, Transcriptional activator protein LasR (Pseudomonas aeruginosa (strain ATCC 15692 / PAO1 / 1C / PRS 101 / LMG12228)); assay: Inhibition of LasR in Pseudomonas aeruginosa PA14 assessed as reduction in rhlB gene expression at 10 uM by RT-qPCR method
[14] = biological target: T1, Transcriptional activator protein LasR (Pseudomonas aeruginosa (strain ATCC 15692 / PAO1 / 1C / PRS 101 / LMG12228)); assay: Inhibition of LasR in Pseudomonas aeruginosa PA14 assessed as reduction in pqsD gene expression at 10 uM by RT-qPCR method
[15] = biological target: T1, Transcriptional activator protein LasR (Pseudomonas aeruginosa (strain ATCC 15692 / PAO1 / 1C / PRS 101 / LMG12228)); assay: Inhibition of LasR in Pseudomonas aeruginosa PA14 assessed as reduction in biofilm formation at 0.1 to 10 uM incubated at 37 degC for 24 hrs by crystal violet staining based static biofilm formation assay
[16] = biological target: T1, Transcriptional activator protein LasR (Pseudomonas aeruginosa (strain ATCC 15692 / PAO1 / 1C / PRS 101 / LMG12228)); assay: Inhibition of Pseudomonas aeruginosa LasR expressed in Pseudomonas aeruginosa PA14 over-expressing pUCPLasR assessed as reduction in biofilm formation at 0.1 to 100 uM incubated at 37 degC for 24 hrs by crystal violet staining based static biofilm formation assay
Pseudomonas aeruginosa [17] = assay: Toxicity against Pseudomonas aeruginosa PA14 assessed as effect on house keeping proC gene expression at 10 uM by RT-qPCR method
[18] = biological target: T1, Transcriptional activator protein LasR (Pseudomonas aeruginosa (strain ATCC 15692 / PAO1 / 1C / PRS 101 / LMG12228)); assay: Inhibition of LasR in Pseudomonas aeruginosa PA14 assessed as reduction in phnB gene expression at 10 uM by RT-qPCR method
[19] = biological target: T1, Transcriptional activator protein LasR (Pseudomonas aeruginosa (strain ATCC 15692 / PAO1 / 1C / PRS 101 / LMG12228)); assay: Inhibition of LasR in Pseudomonas aeruginosa PA14 assessed as reduction in lasB gene expression at 10 uM by RT-qPCR method
[20] = biological target: T1, Transcriptional activator protein LasR (Pseudomonas aeruginosa (strain ATCC 15692 / PAO1 / 1C / PRS 101 / LMG12228)); assay: Inhibition of LasR in Pseudomonas aeruginosa PA14 assessed as reduction in lasR gene expression at 10 uM by RT-qPCR method
[21] = biological target: T1, Transcriptional activator protein LasR (Pseudomonas aeruginosa (strain ATCC 15692 / PAO1 / 1C / PRS 101 / LMG12228)); assay: Inhibition of LasR in Pseudomonas aeruginosa PA14 assessed as reduction in rhlR gene expression at 10 uM by RT-qPCR method

## CCCCCCCCCCCCOc1cc(C)oc(=O)c1
[1]
  inhibition: Dose-dependent effect
[2]
  inhibition: Active
[3]
  inhibition: Active
[4]
  inhibition: Active
[5]
  inhibition: Active
[6]
  inhibition: Active
Pseudomonas aeruginosa [7]
  Activity: Non-toxic
[8]
  inhibition: Active
[9]
  inhibition: Active
[10]
  inhibition: Active
[11]
  inhibition: 11%
[12]
  inhibition: Active
[13]
  inhibition: Active
[14]
  inhibition: Active
[15]
  inhibition: 6%
[16]
  inhibition: Active
Pseudomonas aeruginosa [17]
  Activity: Non-toxic
[18]
  inhibition: Active
[19]
  inhibition: Active
[20]
  inhibition: Active
[21]
  inhibition: Active

## O=C1C=C(Br)/C(=C/Br)O1
[11]
  inhibition: 13%

## CCCCCCCCCCCCCOc1cc(C)oc(=O)c1
[11]
  inhibition: 6%

## CCCCCCCCCCCCCCOc1cc(C)oc(=O)c1
[11]
  inhibition: 6%
